This note sets out measurements from patent US9034906B2, “EP4 agonist” (Asahi Glass Company, Limited, priority 2008, dated 2015).

The target of experiment [1] is T1, human EP1 (Homo sapiens, UniProt P34995).
T1 construct: expressed in transfected cells; host or cells: COS-7 (membranes)
T1 sequence (P34995 1-402): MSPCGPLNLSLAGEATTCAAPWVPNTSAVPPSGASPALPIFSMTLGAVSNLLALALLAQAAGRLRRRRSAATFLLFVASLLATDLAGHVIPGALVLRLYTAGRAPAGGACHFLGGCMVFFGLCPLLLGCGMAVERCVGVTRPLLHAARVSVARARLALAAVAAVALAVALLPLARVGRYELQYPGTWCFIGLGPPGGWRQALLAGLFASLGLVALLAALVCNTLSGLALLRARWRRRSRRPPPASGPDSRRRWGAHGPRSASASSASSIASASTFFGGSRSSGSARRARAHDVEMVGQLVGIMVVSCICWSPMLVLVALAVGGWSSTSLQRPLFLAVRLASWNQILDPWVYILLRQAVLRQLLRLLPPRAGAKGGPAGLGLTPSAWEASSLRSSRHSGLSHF
In words: Receptor affinity, tritium-labeled PGE2 binding to membranes of transfected COS-7 cells. The conditions noted are these: COS-7 cell membranes. Here is the method: PG receptor affinity of compound F and compound J of the present invention was evaluated. Compound F used was one synthesized in Example 9, and compound J was prepared by separating and purifying the compound synthesized in Example 14 with a column (the same preparations were used in the following Examples). COS-7 cells were transfected with the genes of mouse EP4, human EP1-4 or human IP to overexpress the receptor and then the cell membranes were collected. As a labeled ligand, tritium-labeled PGE2 was used for EPs; tritium-labeled iloprost, for IP. The dissociation constant Kd value was obtained and inhibition constant Ki value of each test compound was determined in a conventional method. As a reference control, PGE2 was used for EPs; beraprost sodium (BPS), for IP.

Experiment [2] concerns IL-2. In words: Suppression of IL-2 production by anti-CD3/anti-CD28 stimulated CD4 positive T cells. To be noted: human CD4 positive T cells, anti-CD3 and anti-CD28 antibody, 24 hr, ELISA; geometric mean of three volunteers. It is filed as cell-based. Here is the method:
Using human peripheral blood, an anti-inflammatory effect of compounds F and J in vitro was studied. Blood was collected from 3 healthy volunteers, and CD4 positive T cells were prepared. Anti-CD3 antibody and anti-CD28 antibody were added, and 24 hr later the amounts of IL-2 and TNFα released in the medium were measured by ELISA. […] The amount of IP-10 released into the medium for 48 hr was measured with ELISA. In both cases, the test compound was added 30 min before stimulation.
Each value is a geometric mean of three volunteers.
(In general: ELISA stands for enzyme-linked immunosorbent assay.)

Consider `CCCCC[C@H](O)/C=C/[C@H]1[C@H](O)CC(=O)[C@@H]1C/C=C\CCCC(=O)O` [PGE2], for which, in experiment [1], the Ki (usually the equilibrium dissociation constant of an inhibitor or competing ligand from its target) came out at 2.9 nM. The half-inhibitory concentration (IC50) (in general, the concentration at which inhibition is half-maximal) in experiment [2] is 0.062 nM.
